The values that follow come from BindingDB's records for doi:10.1021/ja0296733 (Abbott Laboratories, 2003).

The target in assay [1] is T1, Tyrosine-protein phosphatase non-receptor type 2 (Homo sapiens, UniProt P17706).
T1 sequence (P17706 whole entry): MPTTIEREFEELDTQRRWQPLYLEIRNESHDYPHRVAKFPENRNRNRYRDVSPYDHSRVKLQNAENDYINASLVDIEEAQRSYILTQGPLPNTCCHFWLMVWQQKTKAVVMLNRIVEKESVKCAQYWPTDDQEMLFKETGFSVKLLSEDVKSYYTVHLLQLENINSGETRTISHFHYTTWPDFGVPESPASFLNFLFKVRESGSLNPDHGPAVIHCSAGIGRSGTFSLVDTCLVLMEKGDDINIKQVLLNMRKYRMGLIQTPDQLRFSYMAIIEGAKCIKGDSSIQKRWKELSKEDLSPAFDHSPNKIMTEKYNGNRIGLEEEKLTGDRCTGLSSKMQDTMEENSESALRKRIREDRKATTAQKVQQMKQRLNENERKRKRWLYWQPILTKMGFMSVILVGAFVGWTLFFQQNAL
As to the kind of experiment: PTP1B and TCPTP Inhibition Assay. The note with it: pH 7.5; 22 °C.
Procedure: (§1) For each concentration of test compound or DMSO control, the initial rates were used to fit the rectangular hyperbola of Michaelis-Menten by nonlinear regression analysis. The ratio of the apparent Km/Vmax vs inhibitor concentration was plotted, and the Ki was calculated by linear regression to be the negative X-intercept.

Assay [2] has as its target T2, Tyrosine-protein phosphatase non-receptor type 1 [1-298] (Homo sapiens, UniProt P18031).
T2 construct: 1-298
T2 sequence (P18031 whole entry): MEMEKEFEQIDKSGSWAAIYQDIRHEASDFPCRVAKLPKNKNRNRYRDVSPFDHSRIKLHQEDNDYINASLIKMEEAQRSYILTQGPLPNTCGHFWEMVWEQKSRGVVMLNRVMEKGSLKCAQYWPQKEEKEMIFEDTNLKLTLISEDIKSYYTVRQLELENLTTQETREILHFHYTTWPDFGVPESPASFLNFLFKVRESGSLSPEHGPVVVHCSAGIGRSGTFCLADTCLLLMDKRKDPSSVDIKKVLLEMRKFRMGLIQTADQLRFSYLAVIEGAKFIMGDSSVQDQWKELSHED
As to the kind of experiment: PTP1B and TCPTP Inhibition Assay. The note with it: pH 7.5; 22 °C.
Procedure: as §1

As a reminder, the Ki is the dissociation constant of the complex between target and ligand, obtained from inhibition or displacement.

`O=C(O)C(=O)N(c1ccccc1C(=O)O)c1cccc2ccccc12` [2-(Naphthalen-1-yloxalylamino)benzoic Acid] returned a Ki in assay [1] of 44 µM.

Compound `CC(=O)N[C@@H](Cc1ccc(N(C(=O)C(=O)O)c2ccccc2C(=O)O)c2ccccc12)C(=O)NCCCCCOc1cc2ccccc2cc1C(=O)O` [3-({5-[(N-Acetyl-3-{4-[(carboxycarbonyl)(2-carboxyphenyl)amino]-1-naphthyl}-L-alanyl)amino]pentyl}oxy)-2-naphthoic Acid] had a Ki in assay [1] of 0.049 µM. As to `Cc1cccc(N(C(=O)C(=O)O)c2ccccc2C(=O)O)c1C`, the Ki is 164 µM in assay [1] and 293 µM in assay [2].
